Patent publication US20250387358A1 (SpringWorks Therapeutics, Inc., priority 2024, published 2025)

Test system: NF1-associated plexiform neurofibromas (PNs)
Experiment: Phase 2b trial, efficacy by BICR volumetric MRI per REiNS criteria
Type: in vivo, human
Details: observed time
Procedure: Participants were screened (assessed for eligibility as described below). […] The median age was 34.5 years (range 18 to 69 years); 85% were white and 64% were female. […] The most commonly reported morbidities were pain (90%) and disfigurement or major deformity (52%).
The median age was 10 years (range 2 to 17 years); 66% were white and 54% were female. […] The most commonly reported morbidities were pain (70%) and disfigurement or major deformity (50%).
Study treatment was administered orally at a twice daily (BID) dose specified in the table below. Dosing was on a 28-day Cycle (4-week course) with a 3 week on/1 week off schedule. The treatment period will last for up to 24 Cycles followed by a 30-day Safety Follow-Up period.
A partial response was defined as PN decrease ≥20% compared to baseline using centrally read MRI volumetric analysis.
The major efficacy outcome measure was confirmed objective response rate (ORR), defined as the percentage of patients with complete response (disappearance of the target PN) or confirmed partial response (≥20% reduction in PN volume confirmed at a subsequent tumor assessment within 2-6 months during the 24-cycle treatment phase). Responses were assessed by blinded independent central review (BICR) using volumetric magnetic resonance imaging (MRI) analysis per Response Evaluation in Neurofibromatosis and Schwannomatosis (REINS) criteria. A secondary efficacy objective was to determine the duration of response for patients who achieved a confirmed objective response.

[1] = Pediatric, first DoR line (r12)
[2] = Pediatric, second DoR line (r13)

Q: Which results are given for `O=C(NOC[C@H](O)CO)c1ccc(F)c(F)c1Nc1ccc(I)cc1F` (single isomer, unassigned) [mirdametinib]?
A: DoR ≥12 months, % of responders (Adult, first DoR line (r12)): (88%); DoR ≥12 months, number of responders (Adult, first DoR line (r12)): 21; DoR ≥12 months, % of responders (Adult, second DoR line (r13)): (48%); DoR ≥12 months, number of responders (Adult, second DoR line (r13)): 14; DoR ≥12 months, % of responders [1]: (90%); DoR ≥12 months, number of responders [1]: 26; DoR ≥12 months, % of responders [2]: (66%); DoR ≥12 months, number of responders [2]: 19
